# Experimental data taken from PubChem BioAssay (NCI).
#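 Following 48 hours of exposure in 96-well plates, responses at five concentrations were used to interpolate endpoints linearly. Abbreviation: GI50, concentration required for 50% inhibition of growth. Definition used: TGI = concentration required for complete inhibition of growth.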
# Experiments:
# Experiment in all cases: NCI tumour cell line growth inhibition, 48 h
# HOP-92 NSCLC = tested on: HOP-92 NSCLC
# ACHN renal = tested on: ACHN renal
# A549 NSCLC = tested on: A549 NSCLC
# UACC-257 melanoma = tested on: UACC-257 melanoma
# SK-MEL-5 melanoma = tested on: SK-MEL-5 melanoma
# U251 CNS = tested on: U251 CNS
# MCF7 breast = tested on: MCF7 breast
# MOLT-4 leukemia = tested on: MOLT-4 leukemia
# T-47D breast = tested on: T-47D breast
# HOP-62 NSCLC = tested on: HOP-62 NSCLC
# CAKI-1 renal = tested on: CAKI-1 renal
# A498 renal = tested on: A498 renal
# OVCAR-8 ovarian = tested on: OVCAR-8 ovarian
# HS 578T breast = tested on: HS 578T breast
# CCRF-CEM leukemia = tested on: CCRF-CEM leukemia
# OVCAR-4 ovarian = tested on: OVCAR-4 ovarian
# SNB-19 CNS = tested on: SNB-19 CNS
# BT-549 breast = tested on: BT-549 breast
# SNB-75 CNS = tested on: SNB-75 CNS
# SK-MEL-2 melanoma = tested on: SK-MEL-2 melanoma
# SR leukemia = tested on: SR leukemia
# SN12C renal = tested on: SN12C renal
# COLO 205 colon = tested on: COLO 205 colon
# SF-295 CNS = tested on: SF-295 CNS
# SF-539 CNS = tested on: SF-539 CNS
# K-562 leukemia = tested on: K-562 leukemia
# MDA-MB-231 breast = tested on: MDA-MB-231 breast
# SK-OV-3 ovarian = tested on: SK-OV-3 ovarian
# SF-268 CNS = tested on: SF-268 CNS
# SK-MEL-28 melanoma = tested on: SK-MEL-28 melanoma
# HL-60(TB) leukemia = tested on: HL-60(TB) leukemia
# RXF 393 renal = tested on: RXF 393 renal
# OVCAR-3 ovarian = tested on: OVCAR-3 ovarian
# MALME-3M melanoma = tested on: MALME-3M melanoma
# MDA-MB-435 = tested on: MDA-MB-435
# NCI-H460 lung = tested on: NCI-H460 lung
# UO-31 renal = tested on: UO-31 renal
# HT29 colon = tested on: HT29 colon
# RPMI-8226 leukemia = tested on: RPMI-8226 leukemia
# HCC-2998 colon = tested on: HCC-2998 colon
# NCI/ADR-RES ovarian = tested on: NCI/ADR-RES ovarian
smiles,measurement,setting,value
c1cn2cc(-c3ccc4ncn(C5CCCCC5)c4c3)nc(-c3ccc4c(c3)ncn4C3CCCCC3)c2n1,GI50,HOP-92 NSCLC,1540 nM
same,TGI,HOP-92 NSCLC,3220 nM
same,GI50,ACHN renal,1680 nM
same,TGI,ACHN renal,3070 nM
same,GI50,A549 NSCLC,1940 nM
same,TGI,A549 NSCLC,3540 nM
same,GI50,UACC-257 melanoma,2100 nM
same,TGI,UACC-257 melanoma,3620 nM
same,GI50,SK-MEL-5 melanoma,1490 nM
same,TGI,SK-MEL-5 melanoma,2830 nM
same,GI50,U251 CNS,1910 nM
same,TGI,U251 CNS,3650 nM
same,GI50,MCF7 breast,1800 nM
same,TGI,MCF7 breast,4580 nM
same,GI50,MOLT-4 leukemia,1640 nM
same,TGI,MOLT-4 leukemia,5220 nM
same,GI50,T-47D breast,1900 nM
same,TGI,T-47D breast,4690 nM
same,GI50,HOP-62 NSCLC,2000 nM
same,TGI,HOP-62 NSCLC,3720 nM
same,GI50,CAKI-1 renal,1460 nM
same,TGI,CAKI-1 renal,2950 nM
same,GI50,A498 renal,1770 nM
same,TGI,A498 renal,3220 nM
same,GI50,OVCAR-8 ovarian,2550 nM
same,TGI,OVCAR-8 ovarian,9490 nM
same,GI50,HS 578T breast,2390 nM
same,TGI,HS 578T breast,6740 nM
same,GI50,CCRF-CEM leukemia,1690 nM
same,TGI,CCRF-CEM leukemia,6080 nM
same,GI50,OVCAR-4 ovarian,2170 nM
same,TGI,OVCAR-4 ovarian,6300 nM
same,GI50,SNB-19 CNS,2110 nM
same,TGI,SNB-19 CNS,4950 nM
same,GI50,BT-549 breast,1940 nM
same,TGI,BT-549 breast,3640 nM
same,GI50,SNB-75 CNS,1390 nM
same,TGI,SNB-75 CNS,3070 nM
same,GI50,SK-MEL-2 melanoma,1740 nM
same,TGI,SK-MEL-2 melanoma,3350 nM
same,GI50,SR leukemia,2870 nM
same,TGI,SR leukemia,> 100000 nM
same,GI50,SN12C renal,2050 nM
same,TGI,SN12C renal,4530 nM
same,GI50,COLO 205 colon,1930 nM
same,TGI,COLO 205 colon,3790 nM
same,GI50,SF-295 CNS,1710 nM
same,TGI,SF-295 CNS,3150 nM
same,GI50,SF-539 CNS,1630 nM
same,TGI,SF-539 CNS,3150 nM
same,GI50,K-562 leukemia,2580 nM
same,TGI,K-562 leukemia,> 100000 nM
same,GI50,MDA-MB-231 breast,1290 nM
same,TGI,MDA-MB-231 breast,3080 nM
same,GI50,SK-OV-3 ovarian,2270 nM
same,TGI,SK-OV-3 ovarian,4100 nM
same,GI50,SF-268 CNS,1590 nM
same,TGI,SF-268 CNS,3150 nM
same,GI50,SK-MEL-28 melanoma,1810 nM
same,TGI,SK-MEL-28 melanoma,3410 nM
same,GI50,HL-60(TB) leukemia,1840 nM
same,TGI,HL-60(TB) leukemia,4570 nM
same,GI50,RXF 393 renal,1510 nM
same,TGI,RXF 393 renal,3000 nM
same,GI50,OVCAR-3 ovarian,1830 nM
same,TGI,OVCAR-3 ovarian,3360 nM
same,GI50,MALME-3M melanoma,2110 nM
same,TGI,MALME-3M melanoma,3750 nM
same,GI50,MDA-MB-435,1770 nM
same,TGI,MDA-MB-435,3540 nM
same,GI50,NCI-H460 lung,1980 nM
same,TGI,NCI-H460 lung,4020 nM
same,GI50,UO-31 renal,1490 nM
same,TGI,UO-31 renal,2850 nM
same,GI50,HT29 colon,2440 nM
same,TGI,HT29 colon,5200 nM
same,GI50,RPMI-8226 leukemia,806 nM
same,TGI,RPMI-8226 leukemia,3990 nM
same,GI50,HCC-2998 colon,1810 nM
same,TGI,HCC-2998 colon,3450 nM
same,GI50,NCI/ADR-RES ovarian,2340 nM
same,TGI,NCI/ADR-RES ovarian,7330 nM
